Measurements reported in article PMC9532399, “The lysosomal transporter TAPL has a dual role as peptide translocator and phosphatidylserine floppase” (Nature Communications, 2022).
Blank lines part the entries; values can stand above or below the compound they belong to.

Legend:
Format in all cases: biochemical
mouse TAPL ΔTMD0 [1] = biological target: T1, mouse TAPL ΔTMD0 (Mus musculus, UniProt Q9JJ59); assay: Dithionite-based flip-flop (floppase) assay of NBD*-labeled lipids, ΔTMD0 proteoliposomes; conditions: NBD*-labeled lipid; PE, PG, PC and cholesterol data not shown
T1 construct: thrombin cleavage site (C); eGFP (C); 10XHis (C); made in house; host or cells: Trichoplusia ni High Five (Hi5) insect cells, baculovirus (pVL1393)
T1 sequence (Q9JJ59 143-762): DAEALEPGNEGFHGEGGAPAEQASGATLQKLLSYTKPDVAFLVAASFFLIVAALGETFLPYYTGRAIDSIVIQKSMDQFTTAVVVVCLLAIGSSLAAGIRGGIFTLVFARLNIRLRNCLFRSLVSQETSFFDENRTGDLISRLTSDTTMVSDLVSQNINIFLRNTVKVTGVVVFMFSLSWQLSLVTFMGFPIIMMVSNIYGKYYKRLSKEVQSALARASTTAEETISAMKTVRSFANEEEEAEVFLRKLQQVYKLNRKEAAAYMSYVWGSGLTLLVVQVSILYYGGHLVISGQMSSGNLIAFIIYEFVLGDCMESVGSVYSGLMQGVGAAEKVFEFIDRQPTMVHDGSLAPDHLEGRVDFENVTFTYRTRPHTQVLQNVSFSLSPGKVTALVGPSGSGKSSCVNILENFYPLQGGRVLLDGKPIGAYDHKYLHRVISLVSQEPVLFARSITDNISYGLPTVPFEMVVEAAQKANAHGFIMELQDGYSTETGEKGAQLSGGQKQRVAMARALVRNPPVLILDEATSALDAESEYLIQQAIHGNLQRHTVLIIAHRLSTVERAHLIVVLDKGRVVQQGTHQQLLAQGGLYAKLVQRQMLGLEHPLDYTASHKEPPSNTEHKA
Description: All lipids used in reconstitution were purchased from Avanti Polar Lipids, Inc. (purity > 99%). The in vitro flip–flop assay was performed using NBD* dye-labeled proteoliposomes as described previously. Briefly, E. coli polar lipids and egg PC were mixed in a 1:1 molar ratio, and 0.5% (mol/mol) NBD*-lipid was added. The lipid mixture was then dried under nitrogen gas. The NBD*-lipids used were 18:1-06:0 NBD*-PS (1-oleoyl-2-{6-[(7-nitro-2-1,3-benzoxadiazol-4-yl)amino]hexanoyl}-sn-glycero-3-phosphoserine), 18:1-06:0 NBD*-PC (1-oleoyl-2-{6-[(7-nitro-2-1,3-benzoxadiazol-4-yl)amino]hexanoyl}-sn-glycero-3-phosphocholine), 18:1-06:0 NBD*-PG (1-oleoyl-2-{6-[(7-nitro-2-1,3-benzoxadiazol-4-yl)amino]hexanoyl}-sn-glycero-3-[phospho-rac-(1-glycerol)]), 18:1-06:0 NBD*-PE (1-oleoyl-2-{6-[(7-nitro-2-1,3-benzoxadiazol-4-yl)amino]hexanoyl}-sn-glycero-3-phosphoethanolamine), and 25-NBD*-Cholesterol (25-[N-[(7-nitro-2-1,3-benzoxadiazol-4-yl)methyl]amino]−27-norcholesterol). Thin lipid films were solubilized in 20 mM HEPES–NaOH pH 8.0, 200 mM NaCl and 5% (v/v) glycerol, incubated at RT for 30 min and subjected to 5 freeze–thaw cycles. After extrusion with a Mini-Extruder at 65 °C, final lipid concentrations were determined by phosphorus assays. Briefly, 10 μL of extruded lipid was added to 10 μL of 2% (w/v) ammonium molybdate and 300 μL of concentrated perchloric acid. The mixture was heated at 250 °C for 30 min, then cooled to RT and mixed with 1.5 mL of 0.4% (w/v) ammonium molybdate and 250 μL of 9% (w/v) L-ascorbic acid. It was again heated at 100 °C for 6 min and cooled to RT. Lipid concentrations were calculated from the absorbance at 820 nm using a standard curve prepared with NaH2PO4 solution. After accurately determining the lipid concentration, DM-purified protein and 5 mM lipid suspension (solubilized in 5 mM DM) were mixed 1:25 (w/w). After incubation at 4 °C for 1.5 h, DM detergent was removed with 75 mg Bio-beads SM-2 by periodic gentle shaking for 1 h at 4 °C (Supplementary Fig. 5a). The beads were replaced once, followed by an additional incubation at 4 °C for 2 h to completely remove detergent. The resulting proteoliposomes were collected by ultracentrifugation at 200,000×g for 1.5 h at 4 °C.
To measure the flip–flop activity, 10 μL of 2 mM NBD*-labeled proteoliposomes were added to 100 μL of reaction buffer (20 mM HEPES–NaOH pH 8.0, 200 mM NaCl, 5 mM ATP and 5% (v/v) glycerol) in the presence of 2 mM MgCl2 (or NaCl), and incubated at 37 °C for 1 h. The mixture was transferred to a 96-well plate and time-dependent fluorescence (λex/λem = 460/538 nm) was recorded every 30 s for 26 min using a fluorescence spectrophotometer (Gemini XPS). After the baseline fluorescence had stabilized, 10 mM sodium dithionite was added to quench the fluorescence of NBD*-lipid present in the outer leaflets of the liposomes. The initial rapid drop and subsequent slow decline in fluorescence intensity were monitored. When a new steady state was established, 1% (v/v) Triton X-100 was added to completely disrupt the liposomes. The net percentage of NBD*-lipid translocated across the lipid bilayer was calculated from the following equation[72]: the percentage of protected NBD*-lipid in the inner leaflet = [(FD−F0)/(FT−F0)]×100, and that of accessible NBD*-lipid in the outer leaflet = [(FT−FD)/(FT−F0)]×100, where FT is the total fluorescence of the sample before the addition of dithionite, FD is the fluorescence of the sample after quenching with dithionite, and F0 is any residual fluorescence of the sample after solubilization with Triton X-100. Fluorescence values (FT, FD, F0) were calculated as the averages of 5 points on the respective plateau lines. The ΔTMD0-mediated lipid floppase activity was determined by subtracting the percentage of NBD*-lipid fluorescence measured in the presence of Na^+/ATP from that measured in the presence of Mg^2+/ATP.

mouse TAPL ΔTMD0 [2] = biological target: T1, mouse TAPL ΔTMD0; assay: Lipid-stimulated ATPase assay, DM-purified ΔTMD0; conditions: lipid stimulation, 3 mM ATP
Description: (§1) The ATPase activities of proteins obtained after various purification procedures were determined by NADH-coupled spectrophotometric assays. 10 μg of DM-purified or nanodisc-reconstituted protein was added to 140 μL of reaction buffer containing 50 mM HEPES–KOH pH 8.0, 60 μg/mL pyruvate kinase (Roche), 16 μg/mL lactate dehydrogenase (Roche), 10 mM phosphoenolpyruvate (Roche), 0.3 mM NADH, 3 mM ATP, 10 mM MgCl2, and 0.17% (w/v) DM in the presence or absence of 250 μM peptide. For proteins reconstituted into nanodiscs, DM was not added to the reaction buffer. For lipid-stimulated ATPase assays, the thin film of lipids was hydrated in 100 μL of buffer containing 50 mM HEPES–KOH pH 8.0 and 10 mM MgCl2 to yield a 10 mM solution. After sonication of the lipid solution for 10 min to decrease its turbidity, the reaction was initiated by adding varying concentrations of lipids to the mixture. ATP hydrolysis activity was monitored at 37 °C for 3 min by measuring the rate of decline of NADH absorbance at 340 nm. To inhibit ATP hydrolysis, the reaction mixture was incubated with 3 mM AMP-PNP or 8 mM NaF/2 mM BeSO4 for 5 min at RT. The kinetic parameters of ATP hydrolysis were calculated by fitting the initial rates of ATP hydrolysis to the Michaelis–Menten equation using PRISM 4.0 (GraphPad software).

mouse TAPL ΔTMD0 [3] = biological target: T1, mouse TAPL ΔTMD0; assay: Peptide transport assay, ΔTMD0 proteoliposomes; conditions: for reduction of peptide transport: 5-IAF-labeled peptide, ATP-dependent, relative to 9-mer; for Transport activity: peptide 10 mM (sic), + 3 mM ATP
Description: Proteoliposomes for peptide transport assays were prepared according to the protocol of Zhao et al., with some modifications. Briefly, E. coli polar lipid extract dissolved in chloroform was dried under a gentle stream of nitrogen. The thin film of lipids was placed under a desiccator overnight to completely remove residual chloroform and then hydrated in 1X PBS buffer pH 7.4 (137 mM NaCl, 2.7 mM KCl, 8 mM Na2HPO4, and 2 mM KH2PO4) with 10 mM MgCl2 and 5% (v/v) glycerol. After water bath sonication at 22 °C for 5 min (Powersonic 610, KLEENTEK), the lipid solution was extruded using a Mini-Extruder equipped with a polycarbonate membrane filter (200 nm pore) (Avanti Polar Lipids, Inc.) to obtain unilamellar vesicles, which were destabilized with 0.36% (w/v) DM. The DM-purified protein and lipid suspension were mixed in a 1:50 (w/w) ratio. After incubation at 4 °C for 2 h, the mixture was treated with Bio-Beads SM-2 resin (60 and 120 mg, see above) at 4 °C for a total of 18 h to remove detergent. The proteoliposomes were collected by centrifugation at 200,000×g for 1.5 h at 4 °C and resuspended in the buffer described above.
The peptide transport activity of ΔTMD0 was measured as described previously. Briefly, 50 μL of ΔTMD0-loaded proteoliposomes (~0.6 μg protein) were added into 200 μL reaction buffer containing 1X PBS pH 7.4, 3 mM ATP, and 10 mM MgCl2 in the presence or absence of 10 μM 5-IAF-labeled peptides. To investigate transport activity, the mixture was incubated at 37 °C for 10 min. The reaction was terminated by incubating the mixture for 20 min on ice. Proteoliposomes were collected by centrifugation at 200,000×g for 30 min and then washed twice with 1X PBS. The proteoliposomes were completely disrupted by adding 10% (w/v) SDS solution (final concentration, 2%). The transported peptide was measured using a microplate reader (Gemini XPS) with excitation at 485 nm and emission at 520 nm.

mouse TAPL ΔTMD0 [4] = biological target: T1, mouse TAPL ΔTMD0; assay: NADH-coupled ATPase assay, DM-purified ΔTMD0; conditions: for ATP hydrolysis in presence of ATP analogs: in the presence of 9-mer peptide
Description: as §1

[5] = 9-mer + ATP set at 100%, 37 °C 10 min, mean n=3

ATP-dependent lipid transport by ΔTMD0 (mouse TAPL ΔTMD0 [1]): very low
Compound: CCCCCCCC/C=C\CCCCCCCC(=O)OC[C@H](COP(=O)(O)OCC(O)CO)OC(=O)CCCCCNc1ccc([N+](=O)[O-])c2nonc12 (mixture of isomers) [NBD*-PG, 1-oleoyl-2-{6-[(7-nitro-2-1,3-benzoxadiazol-4-yl)amino]hexanoyl}-sn-glycero-3-[phospho-rac-(1-glycerol)]]

maximal ATPase activity (turnover) (mouse TAPL ΔTMD0 [2]): 88 min⁻¹ | maximal ATPase activity (Vmax) (mouse TAPL ΔTMD0 [2]; means ± SEM): 649 ± 35 nmol/mg/min
Compound: CCCCCCCC/C=C\CCCCCCCC(=O)OC(COC(=O)CCCCCCCCCCCCCCC)COP(=O)([O-])OCC[N+](C)(C)C (centres unmarked) [POPC, 1-palmitoyl-2-oleoyl-glycero-3-phosphocholine]

reduction of peptide transport (mouse TAPL ΔTMD0 [3]): 90% | Transport activity (mouse TAPL ΔTMD0 [3]; [5]): 10.0006% | Transport activity (mouse TAPL ΔTMD0 [3]; replicate I): 11.6836% | Transport activity (mouse TAPL ΔTMD0 [3]; replicate II): 10.1438% | Transport activity (mouse TAPL ΔTMD0 [3]; replicate III): 8.174%
Compound: RRYQNSTELRRYQNSTC^5-IAFL [18-mer, 5-IAF-labeled 18-mer peptide]

reduction of peptide transport (mouse TAPL ΔTMD0 [3]): 80% | Transport activity (mouse TAPL ΔTMD0 [3]; [5]): 20.2607% | Transport activity (mouse TAPL ΔTMD0 [3]; replicate I): 20.4488% | Transport activity (mouse TAPL ΔTMD0 [3]; replicate II): 15.9535% | Transport activity (mouse TAPL ΔTMD0 [3]; replicate III): 24.3798%
Compound: RRYQNSTELRRYQNSTELNSTC^5-IAFL [23-mer, 5-IAF-labeled 23-mer peptide]

ATP-dependent lipid transport by ΔTMD0 (mouse TAPL ΔTMD0 [1]): very low
Compound: CCCCCCCC/C=C\CCCCCCCC(=O)OC[C@H](COP(=O)([O-])OCC[N+](C)(C)C)OC(=O)CCCCCNc1ccc([N+](=O)[O-])c2nonc12 [NBD*-PC, 1-oleoyl-2-{6-[(7-nitro-2-1,3-benzoxadiazol-4-yl)amino]hexanoyl}-sn-glycero-3-phosphocholine]

Vmax (mouse TAPL ΔTMD0 [4]; basal ATPase activity, DM-purified ΔTMD0): 394 ± 10 nmol/mg/min | Km (mouse TAPL ΔTMD0 [4]; basal ATPase activity, DM-purified ΔTMD0, read-out: Km for ATP): 497 ± 61 µM
Compound: Nc1ncnc2c1ncn2[C@@H]1O[C@H](COP(=O)(O)OP(=O)(O)OP(=O)(O)O)[C@@H](O)[C@H]1O [ATP]

maximal ATPase activity (turnover) (mouse TAPL ΔTMD0 [2]): 155 min⁻¹ | Km (mouse TAPL ΔTMD0 [2]; means ± SEM): 105 ± 16 µM | maximal ATPase activity (Vmax) (mouse TAPL ΔTMD0 [2]; means ± SEM): 1147 ± 41 nmol/mg/min
Compound: CCCCCCCC/C=C\CCCCCCCC(=O)O[C@H](COC(=O)CCCCCCCCCCCCCCC)COP(=O)(O)OCC(O)CO (mixture of isomers) [POPG, 1-palmitoyl-2-oleoyl-sn-glycero-3-phospho-(1’-rac-glycerol)]

ATP-dependent lipid transport by ΔTMD0 (mouse TAPL ΔTMD0 [1]): very low
Compound: CCCCCCCC/C=C\CCCCCCCC(=O)OC[C@H](COP(=O)(O)OCCN)OC(=O)CCCCCNc1ccc([N+](=O)[O-])c2nonc12 [NBD*-PE, 1-oleoyl-2-{6-[(7-nitro-2-1,3-benzoxadiazol-4-yl)amino]hexanoyl}-sn-glycero-3-phosphoethanolamine]

Compound: CC(CCC[C@@H](C)[C@@H]1CC[C@H]2[C@@H]3CC=C4C[C@@H](O)CC[C@]4(C)[C@H]3CC[C@@]21C)N(C)c1ccc([N+](=O)[O-])c2nonc12 (some centres unmarked) [NBD*-cholesterol, 25-[N-[(7-nitro-2-1,3-benzoxadiazol-4-yl)methyl]amino]−27-norcholesterol]
ATP-dependent lipid transport by ΔTMD0 (mouse TAPL ΔTMD0 [1]): failed to detect ΔTMD0-mediated translocation

Compound: ADP·BeF3
ATP hydrolysis in presence of ATP analogs (mouse TAPL ΔTMD0 [4]): prevented ATP hydrolysis

ATP hydrolysis in presence of ATP analogs (mouse TAPL ΔTMD0 [4]): prevented ATP hydrolysis
Compound: Nc1ncnc2c1ncn2[C@@H]1O[C@H](COP(=O)(O)OP(=O)(O)NP(=O)(O)O)[C@@H](O)[C@H]1O [AMP-PNP]
